{"source": "paper PMC11457037", "about": "(Journal of medicinal chemistry, 2023)", "key": {"[1]": {"target": "T1, EV-D68 2A^pro (Enterovirus D68, UniProt A0A097BW19)", "assay": "FRET-based enzymatic assay", "format": "biochemical"}, "[2]": {"target": "T1, EV-D68 2A^pro", "assay": "Enzyme kinetic studies", "format": "biochemical", "settings": "for Mode of inhibition of EV-D68 2A^pro: from fitting of kinetic curves"}, "[3]": {"assay": "In vivo toxicity, escalating i.p. doses"}, "[4]": {"assay": "In vivo snap P.K. in mice", "settings": "male C57BL/6J mice, 50 mg/kg i.p., 10% DMSO and 90% corn oil"}, "[5]": {"system": "five strains of EV-D68", "assay": "Broad-spectrum antiviral activity, five strains of EV-D68 together", "format": "cell-based, Enterovirus D68"}, "[6]": {"system": "EV-D68 US/MO/14-18947", "assay": "Plaque assay, EV-D68 US/MO/14-18947", "format": "cell-based, Enterovirus D68"}, "[7]": {"system": "EV-D68 US/MO/14-18947", "assay": "CPE assay with EV-D68 US/MO/14-18947 in R.D. cells", "format": "cell-based, Enterovirus D68", "settings": "read-out: Antiviral EC50; CPE assay, EV-D68 US/MO/14-18947, R.D. cells"}, "[8]": {"system": "R.D. cells", "assay": "Cytotoxicity, neutral red uptake method in R.D. cells", "format": "cell-based, Human", "settings": "read-out: Cytotoxicity CC50"}, "[9]": {"system": "multiple strains of EV-D68", "settings": "read-out: EC50 values, multiple strains of EV-D68; viral cytopathic effect assay and plaque assay; cited from earlier work"}}}
{"molecule": "CC(C)(C)[C@H](NC(=O)CC12CC3CC(CC(C3)C1)C2)C(=O)N1C[C@@H]2CCC[C@@H]2[C@H]1C(=O)N[C@H](C(=O)C(=O)NC1CC1)C1CCCCC1", "note": "[Jun11762, (1S,3aR,6aS)-2-((S)-2-(2-((3S,5S,7S)-adamantan-1-yl)acetamido)-3,3-dimethylbutanoyl)-N-((S)-1-cyclohexyl-3-(cyclopropylamino)-2,3-dioxopropyl)octahydrocyclopenta[c]pyrrole-1-carboxamide]", "values": [{"measurement": "enzymatic inhibition, comparison in words", "setting": "[1]", "result": "comparable enzymatic inhibition and antiviral activity as Jun8861"}, {"measurement": "Mode of inhibition of EV-D68 2A^pro", "setting": "[2]", "result": "reversible binding"}, {"measurement": "mortality and body weight", "setting": "[3]; BALB/c mice, i.p. 100 to 400 mg/kg, monitored up to day 16", "result": "no mortality or significant body weight loss was observed"}, {"measurement": "tolerated dose", "setting": "[3]; female, BALB/c, mouse, in vivo, 16 days", "result": "up to 400 mg/kg"}, {"measurement": "time plasma concentration was above 4-fold of EC50 value (0.13 μM)", "setting": "[4]", "result": "at least 5 h"}, {"measurement": "EC50", "setting": "[5]; Enterovirus D, EVD68, read-out: EC50 values over all five strains", "result": "43 to 269", "unit": "nM"}, {"measurement": "fold improvement compared to telaprevir, five strains", "setting": "[5]; five EV-D68 strains", "result": "3.1-4.6 fold"}, {"measurement": "fold improvement compared to telaprevir, plaque assay EC50", "setting": "[6]", "result": "3 to 4", "unit": "fold"}]}
{"molecule": "(1S,3aR,6aS)-N-((S)-1-(cyclopropylamino)-1,2-dioxohexan-3-yl)-2-((S)-3,3-dimethyl-2-(2-phenylacetamido)butanoyl)octahydrocyclopenta[c]pyrrole-1-carboxamide [Jun8861]", "values": [{"measurement": "IC50", "setting": "[1]; read-out: Enzymatic inhibitory activity IC50, EV-D68 2A^pro", "result": 80, "unit": "nM"}, {"measurement": "Mode of inhibition of EV-D68 2A^pro", "setting": "[2]", "result": "reversible binding"}, {"measurement": "EC50", "setting": "[7]", "result": 160, "unit": "nM"}, {"measurement": "CC50", "setting": "[8]", "result": 36200, "unit": "nM"}]}
{"molecule": "CCC[C@H](NC(=O)[C@@H]1[C@H]2CCC[C@H]2CN1C(=O)[C@@H](NC(=O)[C@@H](NC(=O)c1cnccn1)C1CCCCC1)C(C)(C)C)C(=O)C(=O)NC1CC1", "note": "[Telaprevir, telaprevir, reference compound]", "values": [{"measurement": "kinact", "setting": "[2]", "result": 0.00146, "unit": "s⁻¹"}, {"measurement": "Mode of inhibition of EV-D68 2A^pro", "setting": "[2]", "result": "irreversible covalent inhibitor"}, {"measurement": "EC50", "setting": "[9]", "result": "400 to 1900", "unit": "nM"}]}
{"molecule": "CCC(C)[C@H](NC(=O)[C@@H]1[C@H]2CCC[C@H]2CN1C(=O)[C@@H](NC(=O)CC12CC3CC(CC(C3)C1)C2)C(C)(C)C)C(=O)C(=O)NC1CC1", "note": "(stereo partly drawn) [Jun11756, (1S,3aR,6aS)-2-((S)-2-(2-((3S,5S,7S)-adamantan-1-yl)acetamido)-3,3-dimethylbutanoyl)-N-((3S,4S)-1-(cyclopropylamino)-4-methyl-1,2-dioxohexan-3-yl)octahydrocyclopenta[c]pyrrole-1-carboxamide]", "values": [{"measurement": "enzymatic inhibition, comparison in words", "setting": "[1]", "result": "comparable enzymatic inhibition and antiviral activity as Jun8861"}, {"measurement": "fold improvement compared to telaprevir, plaque assay EC50", "setting": "[6]", "result": "3 to 4", "unit": "fold"}]}
